Key:
Phospholipase D1 [1] = target: T1, Phospholipase D1 (Homo sapiens, UniProt Q13393); assay: Inhibition of PLD1 in human Calu1 cells; assay type: cell-based
T1 sequence (Q13393 whole entry): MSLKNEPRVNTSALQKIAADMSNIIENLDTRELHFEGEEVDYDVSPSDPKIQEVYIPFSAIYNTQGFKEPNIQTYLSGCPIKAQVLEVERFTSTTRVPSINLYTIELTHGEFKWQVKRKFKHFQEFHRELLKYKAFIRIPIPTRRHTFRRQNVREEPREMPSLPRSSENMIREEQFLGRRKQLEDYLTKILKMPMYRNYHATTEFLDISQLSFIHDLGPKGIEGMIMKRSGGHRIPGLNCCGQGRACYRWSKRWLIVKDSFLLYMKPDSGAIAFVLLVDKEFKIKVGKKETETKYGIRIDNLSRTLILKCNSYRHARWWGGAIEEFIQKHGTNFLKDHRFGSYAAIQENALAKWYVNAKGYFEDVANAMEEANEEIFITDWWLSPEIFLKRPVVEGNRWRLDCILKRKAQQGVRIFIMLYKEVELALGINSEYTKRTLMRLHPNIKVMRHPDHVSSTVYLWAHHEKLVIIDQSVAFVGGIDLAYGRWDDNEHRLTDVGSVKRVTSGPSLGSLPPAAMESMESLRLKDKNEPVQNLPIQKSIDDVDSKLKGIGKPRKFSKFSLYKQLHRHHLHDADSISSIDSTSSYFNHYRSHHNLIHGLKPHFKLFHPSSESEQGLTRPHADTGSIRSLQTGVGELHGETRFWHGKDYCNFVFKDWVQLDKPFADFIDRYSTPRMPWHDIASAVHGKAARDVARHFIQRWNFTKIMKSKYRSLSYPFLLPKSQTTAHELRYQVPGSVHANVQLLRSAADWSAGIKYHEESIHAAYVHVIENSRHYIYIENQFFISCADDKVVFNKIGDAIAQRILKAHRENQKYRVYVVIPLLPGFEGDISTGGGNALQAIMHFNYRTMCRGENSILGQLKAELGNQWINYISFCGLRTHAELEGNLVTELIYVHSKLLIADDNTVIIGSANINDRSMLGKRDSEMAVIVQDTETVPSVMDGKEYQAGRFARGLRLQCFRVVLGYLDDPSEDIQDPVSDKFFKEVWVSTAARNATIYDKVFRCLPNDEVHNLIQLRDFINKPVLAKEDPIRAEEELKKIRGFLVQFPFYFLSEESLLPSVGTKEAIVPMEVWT

Phospholipase D2 [2] = target: T2, Phospholipase D2 (Homo sapiens, UniProt O14939); assay: Inhibition of GFP-fused PLD2 (unknown origin) expressed in HEK293 cells by cellular assay; assay type: cell-based
[3] = Fraction unbound in rat plasma; assay type: ADME, cell-free
[4] = Fraction unbound in rat brain; assay type: ADME, tissue-based
[5] = Fraction unbound in human plasma; assay type: ADME, cell-free
[6] = Volume of distribution at steady state in rat at […], iv administered as cassette dose; assay type: ADME, organism-based; settings: in vivo, read-out: Vdss
[7] = Half life in rat at […], iv administered as cassette dose; assay type: ADME, organism-based; settings: in vivo
[8] = […] clearance in rat at […], iv administered as cassette dose; assay type: ADME, organism-based; settings: in vivo
Homo sapiens = species on record: Homo sapiens; assay: Selectivity ratio of IC50 for […] (unknown origin) to IC50 for […] (unknown origin)
Phospholipase D2 [9] = target: T2, Phospholipase D2
Description: Inhibition of PLD2 (unknown origin)

Phospholipase D1 [10] = target: T1, Phospholipase D1
Description: Inhibition of PLD1 (unknown origin)

T2 sequence (O14939 whole entry, the tested form may be a part): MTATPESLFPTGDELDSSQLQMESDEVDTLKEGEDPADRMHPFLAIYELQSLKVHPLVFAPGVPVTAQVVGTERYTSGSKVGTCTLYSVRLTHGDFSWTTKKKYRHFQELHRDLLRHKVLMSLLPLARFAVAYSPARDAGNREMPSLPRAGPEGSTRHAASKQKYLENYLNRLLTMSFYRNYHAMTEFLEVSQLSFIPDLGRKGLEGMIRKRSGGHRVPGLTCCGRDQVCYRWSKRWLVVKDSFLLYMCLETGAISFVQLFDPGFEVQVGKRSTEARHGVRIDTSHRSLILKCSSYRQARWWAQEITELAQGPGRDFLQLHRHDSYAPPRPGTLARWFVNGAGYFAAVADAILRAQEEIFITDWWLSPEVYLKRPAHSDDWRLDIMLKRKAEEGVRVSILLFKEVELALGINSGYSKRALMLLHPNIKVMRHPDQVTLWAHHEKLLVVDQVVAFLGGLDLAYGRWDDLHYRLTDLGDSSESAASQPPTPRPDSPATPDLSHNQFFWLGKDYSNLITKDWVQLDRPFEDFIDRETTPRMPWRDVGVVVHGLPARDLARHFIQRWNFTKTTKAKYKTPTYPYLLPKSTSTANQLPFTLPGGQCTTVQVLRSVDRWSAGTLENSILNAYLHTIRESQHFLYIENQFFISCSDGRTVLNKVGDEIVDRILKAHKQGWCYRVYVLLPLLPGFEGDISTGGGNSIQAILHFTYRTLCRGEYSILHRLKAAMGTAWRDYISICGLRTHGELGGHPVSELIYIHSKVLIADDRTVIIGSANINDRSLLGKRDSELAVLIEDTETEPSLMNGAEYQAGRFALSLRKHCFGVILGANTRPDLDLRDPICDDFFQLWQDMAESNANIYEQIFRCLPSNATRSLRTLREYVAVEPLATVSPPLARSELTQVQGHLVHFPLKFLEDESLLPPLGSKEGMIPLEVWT

| Fu [3] [%] | Fu [4] [%] | Fu [5] [%] | Compound | IC50 (Phospholipase D1 [1]) [nM] | IC50 (Phospholipase D2 [2]) [nM] | further results |
| --- | --- | --- | --- | --- | --- | --- |
| – | – | – | C[C@@H](CN1CCC2(CC1)C(=O)NC[C@@H]2c1ccc(F)cc1)NC(=O)c1ccc(F)cc1 | 1700 | 2800 | – |
| – | – | – | C[C@@H](CN1CCC2(CC1)C(=O)NC[C@@H]2c1ccc(F)cc1)NC(=O)C#Cc1ccccc1 | 320 | 4000 | – |
| 6.1 | 0.3 | 4.5 | C[C@@H](CN1CCC2(CC1)C(=O)NC[C@H]2c1ccc(F)cc1)NC(=O)c1ccc2ccccc2c1 | 820 | 26 | – |
| 24.6 | 2.7 | 10.8 | O=C(NCCN1CCC2(CC1)C(O)=NC[C@H]2c1ccc(F)cc1)c1ccc(F)cc1 | – | – | Vd [6]: 56 L/kg; half-life [7]: 3.2 h; CLH [8]: 250 mL/min/kg |
| – | – | – | C[C@@H](CN1CCC2(CC1)C(=O)NC[C@H]2c1ccc(F)cc1)NC(=O)C#Cc1ccccc1 | 16 | 150 | – |
| 13 | 0.4 | 13.6 | C[C@@H](CN1CCC2(CC1)C(=O)NC[C@H]2c1ccc(F)cc1)NC(=O)c1cc2ccccc2[nH]1 | 1 | 12 | – |
| – | – | – | O=C(C#Cc1ccccc1)NCCN1CCC2(CC1)C(=O)NC[C@@H]2c1ccc(F)cc1 | 6400 | 810 | – |
| – | – | – | O=C(NCCN1CCC2(CC1)C(=O)NC[C@@H]2c1ccc(F)cc1)c1cc2ccccc2[nH]1 | 320 | 43 | – |
| – | – | – | C[C@@H](CN1CCC2(CC1)C(=O)NC[C@H]2c1ccc(F)cc1)NC(=O)c1ccc(F)cc1 | 250 | 210 | – |
| 31.4 | 2.6 | 12.2 | O=C(NCCN1CCC2(CC1)C(O)=NC[C@H]2c1ccc(F)cc1)c1cnc2ccccc2c1 | – | – | – |
| – | – | – | O=C(NCCN1CCC2(CC1)C(=O)NCN2Cc1cccnc1)c1ccc2ccccc2c1 | – | – | Ratio IC50 (Homo sapiens): > 80; IC50 (Phospholipase D2 [9]): 360 nM; IC50 (Phospholipase D1 [10]): > 30000 nM |
| 16 | 1.3 | 13.8 | O=C(C#Cc1ccccc1)NCCN1CCC2(CC1)C(=O)NC[C@H]2c1ccc(F)cc1 | 1200 | 70 | – |
| – | – | – | C[C@@H](CN1CCC2(CC1)C(=O)NC[C@@H]2c1ccc(F)cc1)NC(=O)c1cc2ccccc2[nH]1 | 16 | 140 | – |
| 19.8 | 0.4 | 12.4 | O=C(NCCN1CCC2(CC1)C(=O)NC[C@H]2c1ccc(F)cc1)c1cc2ccccc2[nH]1 | 21 | 2.5 | Vd [6]: 80 L/kg; half-life [7]: 3.63 h; CLH [8]: 340 mL/min/kg |
